Source: patent US4873249A, “Pharmaceutical composition” (EGIS Gyogyszergyar, priority 1986, dated 1989)
Where two headings read alike, the source gives them in different places.

Tests used:
in vivo [1] = conditions: mouse, po
Protocol: The observation period after treatment lasted for 14 days.
Statistical evaluation was carried out as described by Litchfield-Wilcoxon's method.

[2] = system: brewer's yeast induced fever in rats; test: Antipyretic activity in rats (brewer's yeast fever); assay type: in vivo, Wistar rats
Protocol: The experiments were performed in groups of 10 Wistar rats of both sexes weighing 160-200 g. Fever was induced by 20% brewer's yeast suspended in 0.9% saline solution, applied subcutaneously in a volume of 2 ml/rat distributed at various sites of the back. After 18 hours the test compound or the vehicle was administered in a volume of 10 ml/kg p.o. During this period the rats were fasted but received drinking water ad libitum. The rectal temperature of the animals was measured with a Thermotest thermometer 2 days before injection of the fever inducer, then before the application of the test compound and after treatment in every 60th min. Animals with increase in body temperature less than 0.8° C. were excluded. The results were evaluated according to the statistical method of Duncan.

in vivo [3] = assay type: in vivo; conditions: mouse, in vivo, po; mice, LD50/writhing ID50; read-out: TI (therapeutic index)
Protocol: (§1) Between the 5th and 10th minute after the administration of acetic acid total number of the typical writhing reactions was counted, and expressed as percentage of the control. The experiments were performed in groups of at least 12 mice; measurements were done 60 min. after oral application of the test compounds.

[4] = system: acetic-acid writhing reactions in mice; test: animal or person; assay type: in vivo; conditions: Mus musculus, po, 1 h, read-out: Writhing test ID50
Protocol: as §1

[5] = system: carrageenin-induced oedema in rats; test: Carrageenin-induced oedema test in rats; assay type: in vivo; conditions: 3 h after carrageenin
Protocol: Inhibitory activity in carrageenin-induced oedema test was assessed in rats using the technique of Winter at al. (1962). Carageenin (0.1 ml of 1.0% solution) was injected into the plantar surface of the hind paw of rats weighing 130-160 g. Rats were fasted for 12 hours and received drinking water ad libitum. One hour before treatment with the test compound animals were hydrated orally with 30 ml/kg of tap water. The test compounds or the vehicle were administered p.o. in a volume of 10 ml/kg, then two hours later carrageenin was applied. The paw volume was determined in a plethysmometer prior to and 3 hours after administration of the irritant.

[6] = Chemiluminescence induced by H2O2 in cell free medium
[7] = system: adjuvant arthritis in rats; test: Adjuvant arthritis in rats; assay type: in vivo, Long Evans rats; conditions: for Paw swelling, % Right: injected right hindpaw, day 10 (primary response); for % inhibition Left: left hindpaw, secondary response; for % inhibition Right: right hindpaw, primary response; for Paw swelling, % Left: uninjected left hindpaw, day 15 (secondary response)
[8] = system: acetic acid writhing reactions in rats; test: Writhing test in rats (acetic acid); conditions: Rattus norvegicus, po, 1 h, read-out: Writhing test ID50
Protocol: (§2) Five minutes after treatment with acetic acid, total number of characteristic writhing reactions was counted for 10 minutes and expressed as percentage of the control group.

[9] = system: gastric secretion in rats; test: Effect on gastric secretion in rats (Shay, pylorus ligation); assay type: in vivo, Wistar rats; conditions: for Gastric juice / Free acid content / Total acid content: per 100 g body weight; for Free acid content / Total acid content: titration with 0.1 N NaOH
Protocol: The experiments were carried out following the surgical method of Shay et al. (1946). Fasted Wistar rats weighing 200-250 g were used. During a 48 hours, starving period rats received drinking water ad libitum. The experimental groups consisted of 4 males and 4 females.
On the day of experiment the pylorus of rats was ligated under ether anaesthesia. […] The control groups were treated simultaneously with identical volumes of vehicle in identical route of administration.
Four hours after operation rats were killed with ether, their stomach was removed after cardia ligature, the stomach contents were separated and after centrifugation the volume of the gastric juice was measured. The free acid and total acid content were assayed by titration with 0.1 N NaOH.
The results were individually transformed for 100 g body weight and statistically evaluated by Wilcoxon's method.

[10] = system: PHA stimulated granulocytes; test: Chemiluminescence of PHA stimulated granulocytes; assay type: cell-based, human (healthy volunteers); conditions: Homo sapiens, read-out: IC50, chemiluminescence of PHA stimulated granulocytes
Protocol: (§3) Heparinized blood (10 IU/ml) was taken from healthy volunteers. The blood diluted with equal volume of dextran, the white blood cells were separated by sedimentation. The granulocytes were separated by Uromio gradient. […] The cell suspension was put in dark box for 15 min. Luminol was dissolved in concentrated NH4 OH and diluted in the following solution:
(§4) 50 ml Tris-Parker medium (containing 1.2 g Tris, pH=7.4)
(§5) 4 ml glucose 40% w/v in water
(§6) The Luminol solution (500 μl) was measured in plastic vials and put in dark (37° C.). The reaction was started by addition of the cells and stimulating agent (Phytohaemaglutinin-PHA 10 μg/ml).
(§7) The vials were continuously and gently shaken and the PHA stimulation was measured in every 2.5 min. for 15 min. in a Beckmann LS-100 spectrometer (coincidence switched off). The percentage of the counts measured was calculated in comparison with the solvent treated control cells. At least 5 concentrations of each compound were investigated in at least 3 parallels.

Wistar rats = conditions: from Barron et al. 1968, 20160 min; cited from earlier work
gastric mucosa of rats = test: Measurement of ulcerogenic activity; assay type: in vivo
[11] = Writhing test in rats (acetic acid); conditions: rat, in vivo, po
Protocol: as §2

mononuclear cells = test: Chemiluminescence of PHA stimulated mononuclear cells; assay type: cell-based, human (healthy volunteers)
Protocol: as §3, §4, §5, §6, §7

[12] = 200 mg/kg p.o., 1 hour following treatment
[13] = 200 mg/kg p.o., 3 hours following treatment
[14] = 200 mg/kg p.o., 5 hours following treatment

In the case of `CC(=O)Oc1ccccc1C(=O)O` [Acetylsalicylic acid], the LD50 at 336 h (in vivo [1]) is reported as 1350 mg/kg, the “Decrease in body temperature” value [2, 12] is reported as 0.7 °C and the “Decrease in body temperature” value [2, 13] is reported as 1.0 °C. The “Decrease in body temperature” value [2, 14] was 1.0 °C, the selectivity ratio (in vivo [3]) was 5.2 and the ED50 [4] was 261 mg/kg. The “% inhibition of carrageenin-induced oedema” value ([5]; 100 mg/kg p.o.) was 29.5%.

In the case of `Cc1c(N(C)C)c(=O)n(-c2ccccc2)n1C` [Amidazophen, 1-phenyl-2,3-dimethyl-4-dimethylamino-pyrazolone-5, reference compound], the “Decrease in body temperature” value [2, 12] is reported as 2.7 °C, the “Decrease in body temperature” value [2, 13] is reported as 2.3 °C and the “Decrease in body temperature” value [2, 14] is reported as 1.7 °C.

With `COc1ccc(Cc2cnc(N)nc2N)cc1OC` [Compound A, 2,4-diamino-5-(3,4-dimethoxybenzyl)-pyrimidine] the “Influence on chemiluminescence induced by H2O2” value [6] was “did not influence”, the “Paw swelling, % Right” value ([7]; 100 mg/kg p.o. once daily) was 56.9% and the “% inhibition Left” value ([7]; 100 mg/kg p.o. once daily) was -47.1%. The “% inhibition Right” value ([7]; 100 mg/kg p.o. once daily) was -51.4%, the “Paw swelling, % Left” value ([7]; 100 mg/kg p.o. once daily) was 38.5% and the “Antipyretic activity (in words)” value [2] was “significant antipyretic activity”. The “Decrease in body temperature” value ([2]; 100 mg/kg p.o., 1 hour following treatment) was 1.5 °C, the “Decrease in body temperature” value ([2]; 100 mg/kg p.o., 3 hours following treatment) was 2.0 °C and the “Decrease in body temperature” value ([2]; 100 mg/kg p.o., 5 hours following treatment) was 1.7 °C. For the same molecule, the “Decrease in body temperature” value [2, 12] was 1.5 °C, the “Decrease in body temperature” value [2, 13] was 2.4 °C and the “Decrease in body temperature” value [2, 14] was 1.6 °C. It also gave an ED50 [8] of 36 mg/kg, a Gastric juice ([9]; 250 mg/kg orally) of 3.01 mL and a Free acid content ([9]; 250 mg/kg orally) of 2.17 mL. It also gave a Total acid content ([9]; 250 mg/kg orally) of 4.33 mL, a Gastric juice ([9]; 500 mg/kg orally) of 2.93 mL and a Free acid content ([9]; 500 mg/kg orally) of 2.18 mL. It also gave a Total acid content ([9]; 500 mg/kg orally) of 4.40 mL, a Gastric juice ([9]; 1000 mg/kg orally) of 2.23 mL and a Free acid content ([9]; 1000 mg/kg orally) of 1.24 mL. It also gave a Total acid content ([9]; 1000 mg/kg orally) of 3.18 mL, an inhibition at 250 mg/kg ([9]; Rattus norvegicus, 250 mg/kg, + = increase, - = decrease, read-out: % inhibition compared to the control, Gastric juice) of 17.3% and a Percent change from control (+ = increase, - = decrease) at 250 mg/kg ([9]; Rattus norvegicus, 250 mg/kg, read-out: % inhibition compared to the control, Free acid content) of -23%. For the same molecule, the inhibition at 250 mg/kg ([9]; Rattus norvegicus, 250 mg/kg, read-out: % inhibition compared to the control, Total acid content) was 11.8%, the inhibition at 500 mg/kg ([9]; Rattus norvegicus, 500 mg/kg, + = increase, - = decrease, read-out: % inhibition compared to the control, Gastric juice) was 15.2% and the Percent change from control (+ = increase, - = decrease) at 500 mg/kg ([9]; Rattus norvegicus, 500 mg/kg, read-out: % inhibition compared to the control, Free acid content) was -19.1%. The inhibition at 500 mg/kg ([9]; Rattus norvegicus, 500 mg/kg, read-out: % inhibition compared to the control, Total acid content) was 16.5%, the inhibition at 1000 mg/kg ([9]; Rattus norvegicus, 1000 mg/kg, + = increase, - = decrease, read-out: % inhibition compared to the control, Gastric juice) was -14% and the Percent change from control (+ = increase, - = decrease) at 1000 mg/kg ([9]; Rattus norvegicus, 1000 mg/kg, p < 0.05, read-out: % inhibition compared to the control, Free acid content) was -58.1%. For the same molecule, the inhibition at 1000 mg/kg ([9]; Rattus norvegicus, 1000 mg/kg, read-out: % inhibition compared to the control, Total acid content) was -20.1%, the “Effect on gastric secretion (in words)” value ([9]; doses 250-1000 mg/kg) was “did not change the gastric secretion except in very high doses” and the ED50 [4] was 141 mg/kg. The “% inhibition of carrageenin-induced oedema” value ([5]; 125 mg/kg p.o.) was 42.0% and the IC50 [10] was 0.1 µM.

For `COc1ccc2c(c1)c(CC(=O)O)c(C)n2C(=O)c1ccc(Cl)cc1` [Indomethacin, 1-(p-chloro-benzoyl)-5-methoxy-2-methyl-1H-indole-3-acetic acid], the LD50 (Wistar rats) is given as 25.5 mg/kg, the Ulcus-index (gastric mucosa of rats; 5 mg/kg orally 6 and 16 h before decapitation) is given as 0.2 and the Ulcus-index (gastric mucosa of rats; 10 mg/kg orally 6 and 16 h before decapitation) is given as 1.2. For the same molecule, the Ulcus-index (gastric mucosa of rats; 20 mg/kg orally 6 and 16 h before decapitation) was 3.0, the “Effect on ulcus-index (in words)” value (gastric mucosa of rats; oral, over the doses of Table 4) was “increases does dependently the ulcus-index” and the selectivity ratio [11] was 5.4. The ED50 [8] was 4.7 mg/kg, the “% inhibition of carrageenin-induced oedema” value ([5]; 1 mg/kg p.o.) was 40.3% and the IC50 [10] was > 100 µM.

For `CC(=O)Nc1ccc(O)cc1` [Paracetamol, 4-hydroxy-acetanilide], the ED50 [4] was 180 mg/kg.

With `CCCCC1C(=O)N(c2ccccc2)N(c2ccccc2)C1=O` [Phenylbutazone, 3,5-dioxo-1,2-diphenyl-4-(n-butyl)-pyrazolidine] the “Activity on chemiluminescence in mononuclear cells” value (mononuclear cells) was “inactive”, the “Paw swelling, % Right” value ([7]; 30 mg/kg p.o. once daily) was 94.6% and the “% inhibition Left” value ([7]; 30 mg/kg p.o. once daily) was -49.6%. The “% inhibition Right” value ([7]; 30 mg/kg p.o. once daily) was -19.2%, the “Paw swelling, % Left” value ([7]; 30 mg/kg p.o. once daily) was 36.7% and the ED50 [8] was 19.7 mg/kg. For the same molecule, the ED50 [4] was 100 to 200 mg/kg, the “% inhibition of carrageenin-induced oedema” value ([5]; 25 mg/kg p.o.) was 56.6% and the IC50 ([10]; PHA 10 μg/ml, Luminol 32 μM) was 100 µM.

For `CN1C(C(=O)Nc2ccccn2)=C(O)c2ccccc2S1(=O)=O` [Piroxicam, 4-hydroxy-2-methyl-N-2-pyridyl-2H-1,2-benzothiazine-3-carboxamide-1,1-dioxide], the “Activity on chemiluminescence in mononuclear cells” value (mononuclear cells) was “inactive” and the IC50 ([10]; PHA 10 μg/ml, Luminol 32 μM) was 100 µM.
